35 compounds from patent US7723527B2 (Janssen Pharmaceutica NV, priority 2003, dated 2010) can be followed below.

pKi: −log10 of the molar value.

In this experiment the target is T1, human histamine H4 receptor (Homo sapiens, UniProt Q9H3N8).
T1 construct: expressed in transfected cells; host or cells: SK-N-MC cells or COS7 cells, transiently transfected; cell membranes used
T1 sequence (Q9H3N8 whole entry): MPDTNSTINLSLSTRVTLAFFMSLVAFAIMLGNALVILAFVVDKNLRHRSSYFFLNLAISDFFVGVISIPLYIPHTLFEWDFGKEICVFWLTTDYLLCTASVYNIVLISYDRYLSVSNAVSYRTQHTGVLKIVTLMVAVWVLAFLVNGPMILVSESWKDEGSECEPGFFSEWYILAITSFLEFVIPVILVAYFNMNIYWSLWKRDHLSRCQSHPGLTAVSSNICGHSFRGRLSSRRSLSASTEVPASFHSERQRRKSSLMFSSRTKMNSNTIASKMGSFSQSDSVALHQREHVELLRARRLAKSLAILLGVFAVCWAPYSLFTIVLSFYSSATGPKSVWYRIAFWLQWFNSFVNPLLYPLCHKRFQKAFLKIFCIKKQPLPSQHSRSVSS
The experiment can be described thus: Binding assay on recombinant human histamine H4 receptor (3H-histamine displacement). To be noted: competition binding with 3H-histamine; membranes of SK-N-MC or COS7 cells expressing human H4 receptor; Cheng-Prusoff, KD 5 nM, ligand 5 nM. The method in brief: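 Membranes from SK-N-MC or COS7 cells transiently transfected with human H4R, incubated with ^3H-histamine (5-70 nM) at room temperature for 45 min, nonspecific binding with 10,000 nM histamine. Filtration and scintillation counting; compound affinity from displacement of ^3H-ligand across varying concentrations.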
On to `Cc1cc(Cl)cc2[nH]c(-c3cccc(OCCCCC4CCN(C)CC4)c3)nc12` [Example 98, 5-Chloro-7-methyl-2-{3-[4-(1-methyl-piperidin-4-yl)-butoxy]-phenyl}-1H-benzoimidazole], for which the negative-log Ki (pKi) was 7.55. As for `Cc1cc(C)c2nc(-c3cccc(OCCCCC4CCN(C)CC4)c3C)[nH]c2c1` [Example 99, 5,7-Dimethyl-2-{2-methyl-3-[4-(1-methyl-piperidin-4-yl)-butoxy]-phenyl}-1H-benzoimidazole], the negative-log Ki (pKi) is 7.42. In the case of `Cc1c(OCCCCC2CCN(C)CC2)cccc1-c1nc2c(C)cc(Cl)cc2[nH]1` [Example 100, 5-Chloro-7-methyl-2-{2-methyl-3-[4-(1-methyl-piperidin-4-yl)-butoxy]-phenyl}-1H-benzoimidazole] it was 7.39; in that of `Cc1c(OCCCCC2CCN(C)CC2)cccc1-c1nc2c(C)c(F)ccc2[nH]1` [Example 101, 6-Fluoro-7-methyl-2-{2-methyl-3-[4-(1-methyl-piperidin-4-yl)-butoxy]-phenyl}-1H-benzoimidazole], 7.26; in that of `Cc1c(F)ccc2[nH]c(-c3cccc(OCCCOC4CCN(C)CC4)c3)nc12` [Example 102, 6-Fluoro-7-methyl-2-{3-[3-(1-methyl-piperidin-4-yloxy)-propoxy]-phenyl}-1H-benzoimidazole], 6.49. In the case of `Cc1cc(Cl)cc2[nH]c(-c3ccc(OCCCN4CCN(C)CC4)nc3)nc12` [Example 103, 6-Chloro-4-methyl-2-{6-[3-(4-methyl-piperazin-1-yl)-propoxy]-pyridin-3-yl}-1H-benzoimidazole] it was 7.39; in that of `Cc1cccc2[nH]c(-c3ccc(OCCCN4CCN(C)CC4)nc3)nc12` [Example 104, 4-Methyl-2-{6-[3-(4-methyl-piperazin-1-yl)-propoxy]-pyridin-3-yl}-1H-benzoimidazole], 6.58. Take `Cc1c(F)ccc2[nH]c(-c3ccc(OCCCN4CCN(C)CC4)nc3)nc12` [Example 105, 5-Fluoro-4-methyl-2-{6-[3-(4-methyl-piperazin-1-yl)-propoxy]-pyridin-3-yl}-1H-benzoimidazole]: the pKi was 7.07.

`Cc1cccc2[nH]c(-c3ccc(OCCCC4CCN(C)CC4)nc3)nc12` [Example 106, 4-Methyl-2-{6-[3-(1-methyl-piperidin-4-yl)-propoxy]-pyridin-3-yl}-1H-benzoimidazole]: the negative logarithm of the Ki (pKi) is 7.92. Turning to `Cc1ccc2[nH]c(-c3ccc(OCCCC4CCN(C)CC4)nc3)nc2c1C` [Example 107, 4,5-Dimethyl-2-{6-[3-(1-methyl-piperidin-4-yl)-propoxy]-pyridin-3-yl}-1H-benzoimidazole], the negative logarithm of the Ki (pKi) is 7.59.

Turning to `CN1CCC(CCCOc2ccc(-c3nc4c(Cl)cccc4[nH]3)cn2)CC1` [Example 108, 4-Chloro-2-{6-[3-(1-methyl-piperidin-4-yl)-propoxy]-pyridin-3-yl}-1H-benzoimidazole], the pKi was 7.51. In the case of `Cc1cc(OCCCC2CCN(C)CC2)ncc1-c1nc2c(C)cc(Cl)cc2[nH]1` [Example 109, 6-Chloro-4-methyl-2-{4-methyl-6-[3-(1-methyl-piperidin-4-yl)-propoxy]-pyridin-3-yl}-1H-benzoimidazole] it was 8.22. The result for `Cc1cc(OCCCC2CCN(C)CC2)ncc1-c1nc2c(C)cccc2[nH]1` [Example 110, 4-Methyl-2-{4-methyl-6-[3-(1-methyl-piperidin-4-yl)-propoxy]-pyridin-3-yl}-1H-benzoimidazole] reads 8.22; that for `Cc1cc(OCCCC2CCN(C)CC2)ncc1-c1nc2c(C)c(F)ccc2[nH]1` [Example 111, 5-Fluoro-4-methyl-2-{4-methyl-6-[3-(1-methyl-piperidin-4-yl)-propoxy]-pyridin-3-yl}-1H-benzoimidazole], 7.68; that for `Cc1cc(OCCCC2CCN(C)CC2)ncc1-c1nc2c(C)c(C)ccc2[nH]1` [Example 112, 4,5-Dimethyl-2-{4-methyl-6-[3-(1-methyl-piperidin-4-yl)-propoxy]-pyridin-3-yl}-1H-benzoimidazole], 8.22.

`Cc1cc(C)c2nc(-c3cnc(OCCCC4CCN(C)CC4)cc3C)[nH]c2c1` [Example 113, 4,6-Dimethyl-2-{4-methyl-6-[3-(1-methyl-piperidin-4-yl)-propoxy]-pyridin-3-yl}-1H-benzoimidazole]: the negative-log Ki (pKi) was 8.40.

With `Cc1cc(OCCCC2CCN(C)CC2)ncc1-c1nc2c(Cl)cccc2[nH]1` [Example 114, 4-Chloro-2-{4-methyl-6-[3-(1-methyl-piperidin-4-yl)-propoxy]-pyridin-3-yl}-1H-benzoimidazole], the pKi is 7.96. In the case of `Cc1c(F)ccc2[nH]c(-c3cnc(OCCCC4CCN(C)CC4)cc3Cl)nc12` [Example 115, 2-{4-Chloro-6-[3-(1-methyl-piperidin-4-yl)-propoxy]-pyridin-3-yl}-5-fluoro-4-methyl-1H-benzoimidazole] it was 8.40; in that of `Cc1cccc2[nH]c(-c3cnc(OCCCC4CCN(C)CC4)cc3Cl)nc12` [Example 116, 2-{4-Chloro-6-[3-(1-methyl-piperidin-4-yl)-propoxy]-pyridin-3-yl}-4-methyl-1H-benzoimidazole], 7.92. With `Cc1cc(Cl)cc2[nH]c(-c3cnc(OCCCC4CCN(C)CC4)cc3Cl)nc12` [Example 117, 6-Chloro-2-{4-chloro-6-[3-(1-methyl-piperidin-4-yl)-propoxy]-pyridin-3-yl}-4-methyl-1H-benzoimidazole], the pKi is 8.30.

For the compound `Cc1cc(C)c2nc(-c3cnc(OCCCC4CCN(C)CC4)cc3Cl)[nH]c2c1` [Example 118, 2-{4-Chloro-6-[3-(1-methyl-piperidin-4-yl)-propoxy]-pyridin-3-yl}-4,6-dimethyl-1H-benzoimidazole], the negative logarithm of the Ki (pKi) is 8.40. In the case of `COc1cc(OCCCC2CCN(C)CC2)ncc1-c1nc2c(C)cccc2[nH]1` [Example 119, 2-{4-Methoxy-6-[3-(1-methyl-piperidin-4-yl)-propoxy]-pyridin-3-yl}-4-methyl-1H-benzoimidazole] it was 7.29; in that of `COc1cc(OCCCC2CCN(C)CC2)ncc1-c1nc2c(C)c(F)ccc2[nH]1` [Example 120, 5-Fluoro-2-{4-methoxy-6-[3-(1-methyl-piperidin-4-yl)-propoxy]-pyridin-3-yl}-4-methyl-1H-benzoimidazole], 7.03; in that of `Cc1c(F)ccc2[nH]c(-c3ccc(OCCCC4=CCN(C)CC4)nc3)nc12` [Example 121, 5-Fluoro-4-methyl-2-{6-[3-(1-methyl-1,2,3,6-tetrahydro-pyridin-4-yl)-propoxy]-pyridin-3-yl}-1H-benzoimidazole], 7.22. On to `Cc1cccc2[nH]c(-c3ccc(OCCCC4=CCN(C)CC4)nc3)nc12` [Example 122, 4-Methyl-2-{6-[3-(1-methyl-1,2,3,6-tetrahydro-pyridin-4-yl)-propoxy]-pyridin-3-yl}-1H-benzoimidazole], for which the pKi was 7.15.

For the compound `Cc1cc(Cl)cc2[nH]c(-c3ccc(OCCCC4=CCN(C)CC4)nc3)nc12` [Example 123, 6-Chloro-4-methyl-2-{6-[3-(1-methyl-1,2,3,6-tetrahydro-pyridin-4-yl)-propoxy]-pyridin-3-yl}-1H-benzoimidazole], the pKi was 7.17. As for `Cc1ccc2[nH]c(-c3ccc(OCCCC4=CCN(C)CC4)nc3)nc2c1C` [Example 124, 4,5-Dimethyl-2-{6-[3-(1-methyl-1,2,3,6-tetrahydro-pyridin-4-yl)-propoxy]-pyridin-3-yl}-1H-benzoimidazole], the negative logarithm of the Ki (pKi) is 7.07. In the case of `Cc1cc(C)c2nc(-c3ccc(OCCCC4=CCN(C)CC4)nc3)[nH]c2c1` [Example 125, 4,6-Dimethyl-2-{6-[3-(1-methyl-1,2,3,6-tetrahydro-pyridin-4-yl)-propoxy]-pyridin-3-yl}-1H-benzoimidazole] it was 7.11; in that of `Cc1c(Cl)ccc2[nH]c(-c3ccc(OCCCC4=CCN(C)CC4)nc3)nc12` [Example 126, 5-Chloro-4-methyl-2-{6-[3-(1-methyl-1,2,3,6-tetrahydro-pyridin-4-yl)-propoxy]-pyridin-3-yl}-1H-benzoimidazole], 6.37. For `Cc1c(F)ccc2[nH]c(-c3cnc(OCCCC4CCN(C)CC4)cc3CN3CCCC3)nc12` [Example 127, 5-Fluoro-4-methyl-2-{6-[3-(1-methyl-piperidin-4-yl)-propoxy]-4-pyrrolidin-1-ylmethyl-pyridin-3-yl}-1H-benzoimidazole], the pKi was 6.11. The result for `Cc1cccc2[nH]c(-c3cc(OCCCCC4CCN(C)CC4)ncc3Br)nc12` [Example 128, 2-{5-Bromo-2-[4-(1-methyl-piperidin-4-yl)-butoxy]-pyridin-4-yl}-4-methyl-1H-benzoimidazole] reads 8.52.

For the compound `Cc1c(F)ccc2[nH]c(-c3cc(OCCCCC4CCN(C)CC4)ncc3Br)nc12` [Example 129, 2-{5-Bromo-2-[4-(1-methyl-piperidin-4-yl)-butoxy]-pyridin-4-yl}-5-fluoro-4-methyl-1H-benzoimidazole], the negative-log Ki (pKi) was 8.30.

As for `Cc1cc(Cl)cc2[nH]c(-c3cc(OCCCCC4CCN(C)CC4)ncc3Br)nc12` [Example 130, 2-{5-Bromo-2-[4-(1-methyl-piperidin-4-yl)-butoxy]-pyridin-4-yl}-6-chloro-4-methyl-1H-benzoimidazole], the pKi was 8.30. With `Cc1cc(C)c2nc(-c3cc(OCCCCC4CCN(C)CC4)ncc3Br)[nH]c2c1` [Example 131, 2-{5-Bromo-2-[4-(1-methyl-piperidin-4-yl)-butoxy]-pyridin-4-yl}-4,6-dimethyl-1H-benzoimidazole], the pKi is 8.52. In the case of `Cc1ccc2[nH]c(-c3cc(OCCCCC4CCN(C)CC4)ncc3Br)nc2c1C` [Example 132, 2-{5-Bromo-2-[4-(1-methyl-piperidin-4-yl)-butoxy]-pyridin-4-yl}-4,5-dimethyl-1H-benzoimidazole] it was 8.30.
